In publication PMC11431997, “Baicalin Inhibits FIPV Infection In Vitro by Modulating the PI3K-AKT Pathway and Apoptosis Pathway” (International Journal of Molecular Sciences, 2024):

Tests used:
FIPV-infected CRFK cells = experiment: FIPV-induced apoptosis, Annexin V-FITC/PI assay; format: cell-based, feline; details: baicalin-treated FIPV-infected CRFK cells, 24 h after infection, p < 0.05
Protocol: CRFK cells were seeded in 96-well cell culture plates at a density of 1 × 10^4 cells/well and cultured at 37 °C in 5% CO2 until the cell density was greater than 90%. After the cells were washed twice with PBS, 50 μL of test compound and 50 μL of FIPV were added to each well simultaneously (at the same time, a cell control group with only 100 μL of MM and a viral control group with only 100 μL of FIPV were added). Three replicate wells were used for each group. […] Then, apoptosis was detected according to the instructions of the Annexin V-FITC/PI Apoptosis Detection Kit (MCE, USA). The results were observed using a fluorescence inverted microscope, and the fluorescence intensity was analyzed using ImageJ.

FIPV (BJ-01) [1] = experiment: Cellular viral load by qPCR (FIPV-N gene); format: cell-based, feline infectious peritonitis virus
Protocol: CRFK cells were seeded in a 96-well cell culture plate at a density of 1 × 10^4 cells/well and cultured at 37 °C in 5% CO2 until the cell density was greater than 90%. After the cells were washed twice with PBS, 50 μL of compound and 50 μL of FIPV were added to each well simultaneously, and the plates were incubated at 37 °C and 5% CO2 for 12, 24, 36, 48, 60, and 72 h (at the same time, a cell control group with only 100 μL of MM and a viral control group with only 100 μL of FIPV were added). There were 3 replicate wells for each group and incubation time. After the liquid in the plate was discarded, the cells were washed twice with PBS. Then, the cells were digested by adding tryptic digest at 30 μL/well, the cell suspension was collected, and the cell precipitates were collected by centrifugation at 3000 rpm for 1 min. Total cellular RNA was extracted after the cell precipitates were resuspended in PBS according to the instructions of the FastPure Viral DNA/RNA Mini Kit Pro (Vazyme, Nanjing, China). Then, reverse transcription was performed using HiScript IV RT SuperMix for qPCR (+gDNA wiper) (Vazyme, Nanjing, China). The sequences of the primers used for the detection of the FIPV-N (GenBank: MK840958.1) were […] (F: 5′→3′) and […] (R: 5′→3′). The sequences of the primers used for the detection of the GAPDH genes were […] (F: 5′→3′) and […] (R: 5′→3′). […]

[2] = tested on: PI3K-AKT signaling pathway and apoptosis pathway; experiment: Western blot of key proteins in FIPV-infected CRFK cells; format: cell-based, feline; details: treatment group vs FIPV group, p < 0.05
Protocol: Based on the results of the above experiments, the cell precipitates were collected according to the method in Section 4.6 and grouped as described in Section 4.7. After infection, the cells were collected at the appropriate time of infection, and the proteins were extracted from the samples according to the instructions of a total protein extraction kit (strong) (Solarbio, Beijing, China). Afterwards, the protein concentration of the extracted samples was determined separately using a BCA Protein Quantification Kit (Vazyme, Nanjing, China), and all sample proteins were diluted to the same concentration using PBS. The diluted protein samples were mixed with NuPAGE LDS Sample Buffer (4×) (Invitrogen, Waltham, MA, USA) at a ratio of 1:4 and heated at 70 °C for 10 min to denature the proteins. After that, the denatured proteins were added to 10 wells of 12% sodium dodecyl sulfate-polyacrylamide gel electrophoresis (SDS-PAGE) (Vazyme, Nanjing, China) at 20 μg/well, after which the total proteins were separated on NuPAGE MES SDS Running Buffer (Invitrogen, CA, USA). After separation, proteins were transferred from the gel onto 0.45 μm polyvinylidene fluoride (PVDF) membranes (Millipore, Billerica, MA, USA) using WB Transfer Buffer (Solarbio, Beijing, China). After that, the PVDF membranes were blocked with 5% skim milk (Solarbio, Beijing, China) at room temperature for 2 h. At the end of the closure, the membranes were washed with TBST (6 times, each time for 5 min, as described below); then. the primary antibodies were added and incubated at 4 °C overnight. The next day, the PVDF membranes were washed with TBST, the primary antibodies were removed, and the secondary antibodies were added and incubated at room temperature for 2 h (the antibody information and dilutions are shown in Section 4.1.4). At the end of the incubation, the PVDF membranes were washed with TBST, after which the protein bands were exposed and imaged using a SuperPico ECL Chemiluminescence Kit (Vazyme, Nanjing, China) and an Al680 imaging system (GE, Boston, MA, USA). The gray values of the WB bands were analyzed using ImageJ 1.54f, and the relative expression was calculated using GAPDH as an internal reference protein.

FIPV (BJ-01) [3] = experiment: Direct inactivation of FIPV (compound pre-mixed with virus, CCK-8); format: cell-based, feline infectious peritonitis virus
Protocol: According to previous methods, CRFK cells were seeded in 96-well cell culture plates at a density of 1 × 10^4 cells/well and cultured at 37 °C in 5% CO2 until the cell density was greater than 90%. Then, the medium was discarded, and the cells were washed twice with PBS. The compound was mixed with FIPV in the ratio of 1:1 and incubated at 37 °C and 5% CO2 for 30, 60, 90, 120, and 150 min, respectively; then, the mixture of different incubation durations were added into 96-well cell culture plates at 100 μL/well and incubated at 37 °C and 5% CO2, respectively (at the same time, a cell control group with only 100 μL of MM and a viral control group with only 100 μL of FIPV were added). There were 3 replicate wells for each compound and group. After the CPE of the viral control group reached more than 80%, the liquid in the culture plate was removed and washed twice with PBS. Afterwards, the IR of the compounds against the virus was computed according to the directions of the Cell Counting Kit-8.

O=C(O)[C@H]1O[C@@H](Oc2cc3oc(-c4ccccc4)cc(=O)c3c(O)c2O)[C@H](O)[C@@H](O)[C@@H]1O [Baicalin]
fluorescence intensity per unit area of cells (early apoptosis, green fluorescence) (FIPV-infected CRFK cells): significantly lower
FIPV-N gene copy number (FIPV (BJ-01) [1]; 48 h compared with 36 h of baicalin treatment, p < 0.05): significantly decreased
time of peak FIPV-N gene copy number after baicalin treatment (FIPV (BJ-01) [1]; FIPV-infected CRFK cells, qPCR at 12-72 h): 36 h
Bax relative expression (WB, GAPDH reference) [2]: significantly downregulated
Bcl-2/Bax relative expression (WB) [2]: significantly upregulated
Bcl-2 relative expression (WB, GAPDH reference) [2]: significantly upregulated
EGFR relative expression (WB, GAPDH reference) [2]: significantly upregulated
PI3K relative expression (WB, GAPDH reference) [2]: significantly upregulated
cleaved caspase 9 relative expression (WB, GAPDH reference) [2]: significantly downregulated
inhibition rate on FIPV (direct inactivation) (FIPV (BJ-01) [3]; 150 min of co-culture of baicalin with FIPV): ~100%
inhibition rate on FIPV (direct inactivation) (FIPV (BJ-01) [3]; baicalin co-cultured with FIPV 30-150 min before addition to CRFK cells, all times): more than 50%
